Data from patent US20170066717A1, “NEW PHENYLAZETIDINECARBOXYLATE OR -CARBOXAMIDE COMPOUNDS” (INVENTIVA, priority 2014, published 2017).
Structures can show the parent of a compound that is named as a salt.

How the values were obtained:
NURR-1/RXRα = molecular target: T1, NURR-1/RXRα (Homo sapiens, UniProt P19793); assay: Transactivation test, NURR-1-Gal4/RXRα, luciferase reporter in Cos-7 cells; format: cell-based; conditions: for Emax: COS-7, induction level relative to reference XCT0135908 at 2×10^−5 M (=100%), read-out: hNurr1_RXRaFL Emax (%); for EC50: Cos-7 cells, NURR-1-Gal4/RXRα, luciferase reporter, read-out: hNurr1_RXRaFL EC50
T1 construct: expressed in transfected cells; host or cells: Cos-7 cells
T1 sequence (P19793 whole entry, the tested form may be a part): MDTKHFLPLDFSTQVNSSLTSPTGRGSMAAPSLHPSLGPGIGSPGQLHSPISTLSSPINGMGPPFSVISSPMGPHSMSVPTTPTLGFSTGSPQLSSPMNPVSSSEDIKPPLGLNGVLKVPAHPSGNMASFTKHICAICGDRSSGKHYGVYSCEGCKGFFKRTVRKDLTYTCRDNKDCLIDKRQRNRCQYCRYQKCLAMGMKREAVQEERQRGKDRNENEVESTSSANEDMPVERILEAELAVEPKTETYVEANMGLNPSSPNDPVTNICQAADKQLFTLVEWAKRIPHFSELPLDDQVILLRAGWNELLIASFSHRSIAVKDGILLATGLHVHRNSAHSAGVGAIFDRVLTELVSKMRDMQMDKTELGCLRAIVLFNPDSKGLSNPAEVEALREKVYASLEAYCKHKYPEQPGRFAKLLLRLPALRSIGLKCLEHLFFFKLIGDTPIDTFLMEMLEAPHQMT
T1 sequence (P43354 whole entry partner, the tested form may be a part): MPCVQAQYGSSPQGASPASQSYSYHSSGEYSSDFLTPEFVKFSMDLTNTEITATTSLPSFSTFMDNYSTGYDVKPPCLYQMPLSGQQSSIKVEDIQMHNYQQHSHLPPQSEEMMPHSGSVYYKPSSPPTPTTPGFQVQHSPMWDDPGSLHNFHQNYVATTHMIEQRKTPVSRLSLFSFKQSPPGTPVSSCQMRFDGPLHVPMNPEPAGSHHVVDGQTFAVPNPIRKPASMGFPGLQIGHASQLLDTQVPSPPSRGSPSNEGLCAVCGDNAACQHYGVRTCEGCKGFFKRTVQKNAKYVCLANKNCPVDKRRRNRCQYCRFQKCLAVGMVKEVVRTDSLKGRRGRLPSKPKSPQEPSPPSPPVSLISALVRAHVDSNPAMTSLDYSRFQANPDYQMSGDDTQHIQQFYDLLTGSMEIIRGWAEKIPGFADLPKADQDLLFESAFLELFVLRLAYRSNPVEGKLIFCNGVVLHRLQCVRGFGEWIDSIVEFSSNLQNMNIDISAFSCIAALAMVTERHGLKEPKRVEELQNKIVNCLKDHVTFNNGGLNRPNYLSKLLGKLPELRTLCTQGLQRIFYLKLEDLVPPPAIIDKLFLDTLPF
T1 sequence (P04386 1-147 partner limits assumed): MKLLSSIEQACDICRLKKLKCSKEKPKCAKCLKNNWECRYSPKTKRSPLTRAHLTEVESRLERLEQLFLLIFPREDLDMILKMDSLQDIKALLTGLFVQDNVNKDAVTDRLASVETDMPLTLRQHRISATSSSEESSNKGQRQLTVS

NURR-1/RXRγ = molecular target: T2, NURR-1/RXRγ (Homo sapiens, UniProt P48443); assay: Transactivation test, NURR-1-Gal4/RXRγ, luciferase reporter in Cos-7 cells; format: cell-based; conditions: for Emax: COS-7, induction level relative to reference XCT0135908 at 2×10^−5 M (=100%), read-out: hNurr1_RXRgFL Emax (%); for EC50: Cos-7 cells, NURR-1-Gal4/RXRγ, luciferase reporter, read-out: hNurr1_RXRgFL EC50
T2 construct: expressed in transfected cells; host or cells: Cos-7 cells
T2 sequence (P48443 whole entry, the tested form may be a part): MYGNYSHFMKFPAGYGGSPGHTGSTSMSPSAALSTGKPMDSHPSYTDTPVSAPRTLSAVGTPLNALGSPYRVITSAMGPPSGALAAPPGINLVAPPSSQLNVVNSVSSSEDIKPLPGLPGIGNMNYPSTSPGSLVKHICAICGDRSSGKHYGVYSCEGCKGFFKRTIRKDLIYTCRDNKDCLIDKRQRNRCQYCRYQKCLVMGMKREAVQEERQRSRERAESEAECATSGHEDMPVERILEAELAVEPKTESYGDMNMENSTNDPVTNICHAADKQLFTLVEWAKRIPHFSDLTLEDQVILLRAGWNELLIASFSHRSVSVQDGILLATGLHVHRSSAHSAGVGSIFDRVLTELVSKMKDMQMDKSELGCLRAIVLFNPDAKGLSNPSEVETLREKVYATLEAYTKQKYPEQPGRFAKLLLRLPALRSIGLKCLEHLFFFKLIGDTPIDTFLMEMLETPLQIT
T2 sequence (P43354 whole entry partner, the tested form may be a part): as the sequence (P43354 whole entry partner, the tested form may be a part) above
T2 sequence (P04386 1-147 partner limits assumed): as the sequence (P04386 1-147 partner limits assumed) above

For `CC(C)c1ccc2c(c1)CC(C)(C)CN2c1cccc(N2CC(C(=O)O)C2)c1` (as salt: ammonium) [Example 245, tert-butylammonium 1-[3-(6-isopropyl-3,3-dimethyl-2,4-dihydroquinolin-1-yl)phenyl]azetidine-3-carboxylate], which melting point is on record?
Its melting point is 165 to 177 °C.

For `O=C(O)C1CN(c2cccc(N3CCOc4cc(C(F)(F)F)ncc43)c2)C1` (as salt: sodium) [Example 240, sodium 1-[3-[7-(trifluoromethyl)-2,3-dihydropurido[4,3][1,4]oxazin-4-yl]phenyl]azetidine-3-carboxylate], which melting point is on record?
Its melting point is 49 to 63 °C.

With `CN1CC(C)(C)Oc2cc(C(C)(C)C)cc(-c3cccc(N4CC(C(=O)[O-])C4)c3)c21.[Na+]` [Example 211, sodium 1-[3-(7-tert-butyl-2,2,4-trimethyl-3H-1,4-benzoxazin-5-yl)phenyl]azetidine-3-carbxoylate] as the compound, how does the Emax (NURR-1/RXRα) read?
The Emax was 94%.

And the EC50 (NURR-1/RXRα)?
The EC50 was 0.91 nM.

And the melting point?
The melting point was 245 to 246 °C.

For `O=C(O)C1CN(c2cccc(N3CC4(CCCC4)c4cc(Cl)ccc43)c2)C1` (as salt: ammonium) [Example 257, tert-butylammonium 1-[3-(5′-chlorospiro[cyclopentane-1,3′-indolin]-1′-yl)phenyl]azetidine-3-carboxyate], which melting point is on record?
Its melting point is 131 to 133 °C.

With `CCCc1ccc(C(C)C)cc1-c1cccc(N2CC(C(=O)O)C2)c1` (as salt: salt) [Example 195, piperazin-1-ium-1-[3-(5-isopropyl-2-propylphenyl)phenyl]azetidine-3-carboxylate] as the compound, how does the melting point read?
Its melting point is 109 °C.

Which Emax (NURR-1/RXRα) does the source give for `Cc1cc2c(c(-c3cccc(N4CC(C(=O)[O-])C4)c3)c1)NCCC(C)(C)O2.[Na+]` [Example 209, sodium 1-[3-(2,2,8-trimethyl4,5-dihydro-3H-1,5-benzoxazepin-6-yl)phenyl]azetidine-3-carboxylate] here?
Its Emax is 95%.

And the EC50 (NURR-1/RXRα)?
Its EC50 is 212 nM.

What about the melting point of the same compound?
The melting point was 145 to 154 °C.

Which melting point does the source give for `CCc1cc2c(c(-c3cccc(N4CC(C(=O)O)C4)c3)c1)NCC(C)(C)O2` (as salt: ammonium) [Example 207, tert-butylammonium 1-[3-(7-ethyl-2,2-dimethyl-3,4-dihydro-1,4-benzoxazin-5-yl)phenyl]azetidine-3-carboxylate] here?
The melting point was 100 to 124 °C.

Which melting point does the source give for `CC1(C)CN(c2cccc(N3CC(C(=O)O)C3)c2)c2ccc(Br)cc2O1` (as salt: sodium) [Example 222, sodium 1-[3-(7-bromo-2,2-dimethyl-3H-1,4-benzoxazin-4-yl)phenyl]azetidine-3-carbxoylate] here?
The melting point was 140 °C.

What does the source list for `CC1(C)C=C(c2cccc(N3CC(C(=O)[O-])C3)c2)c2ccc(C(C)(C)C)cc2O1.[Na+]` [Example 267, sodium 1-[3-(7-tert-butyl-2,2-dimethylchromen-4-yl)phenyl]azetidine-3-carboxylate]?
Emax (NURR-1/RXRα): 115%; EC50 (NURR-1/RXRα): 13 nM; melting point: 212 to 233 °C

With `O=C(O)C1CN(c2cccc(-c3cc(C(F)(F)F)cc4c3NCCO4)c2)C1` [Example 65, 1-[3-[7-(trifluoromethyl)-3,4-dihydro-2H-1,4-benzoxazin-5-yl]phenyl]azetidine-3-carboxylic acid] as the compound, how does the Emax (NURR-1/RXRα) read?
The Emax was 99%.

What about the EC50 (NURR-1/RXRα) of the same compound?
Its EC50 is 10 nM.

And the melting point?
The melting point was 76 to 79 °C.

With `CC(C)Cc1ccc2c(c1)OC(C)(C)CN2c1cccc(N2CC(C(=O)O)C2)c1` (as salt: ammonium) [Example 231, tert-butylammonium 1-[3-(7-isobutyl-2,2-dimethyl-3H-1,4-benzoxazin-4yl)phenyl]azetidine-3-carboxylate] as the compound, how does the melting point read?
Its melting point is 120 to 121 °C.

With `CCC1(CC)C=C(c2cccc(N3CC(C(=O)O)C3)c2)c2ccc(C(F)(F)F)cc2O1` (as salt: ammonium) [Example 265] as the compound, how does the melting point read?
The melting point was 147 to 152 °C.

What does the source list for `CC(C)(C)c1cc2c(c(-c3cccc(N4CC(C(=O)[O-])C4)c3)c1)NCC1(CCC1)O2.[Na+]` [Example 205, sodium 1-[3-(7-tert-butylspiro[3,4-dihydro-1,4-benzoxazine-2,1′-cyclobutane]-5-yl)phenyl]azetidine-3-carboxylate]?
Emax (NURR-1/RXRα): 115%; EC50 (NURR-1/RXRα): 4 nM; melting point: 190 to 200 °C

Which Emax (NURR-1/RXRα) does the source give for `O=C([O-])C1CN(c2cccc(C3=CC4(CCC4)Oc4cc(C(F)(F)F)ccc43)c2)C1.[Na+]` [Example 268, sodium 1-[3-[7-(trifluoromethyl)spiro[chromene-2,1′-cyclobutane]-4-yl]phenyl]azetidine-3-carboxylate] here?
Its Emax is 107%.

And the EC50 (NURR-1/RXRα)?
The EC50 was about 1 nM.

And the melting point?
The melting point was 177 to 191 °C.

For `CN(C)C(=O)c1cn(-c2cccc(N3CC(C(=O)O)C3)c2)c2ccc(C(F)(F)F)cc12` [Example 131], which Emax (NURR-1/RXRα) is on record?
Its Emax is 55%.

And the EC50 (NURR-1/RXRα)?
The EC50 was 2920 nM.

What about the melting point of the same compound?
The melting point was 230 to 234 °C.

What does the source list for `CCS(=O)(=O)c1cn(-c2cccc(N3CC(C(=O)O)C3)c2)c2ccc(C(F)(F)F)cc12` [Example 138, 1-[3-[3-(ethylsulfonyl)-5-(trifluoromethyl)indol-1-yl]phenyl]azetidine-3-carboxylic acid]?
Emax (NURR-1/RXRα): 116%; EC50 (NURR-1/RXRα): 134 nM; melting point: 161 to 168 °C

Which melting point does the source give for `CC1(C)Oc2cc(C#N)ccc2N(c2cccc(N3CC(C(=O)O)C3)c2)C1=O` (as salt: ammonium) [Example 254, tert-butylammonium 1-[3-(7-cyano-2,2-dimethyl-3-oxo-1,4-benzoxazin-4-yl)phenyl]azetidine-3-carboxylate] here?
Its melting point is 204 to 211 °C.

For `CC1(C)Oc2cc(C#N)ccc2N(c2cccc(N3CC(C(=O)O)C3)c2)C1=O` [Example 253, 1-[3-(7-cyano-2,2-dimethyl-3-oxo-1,4-benzoxazin-4-yl)phenyl]azetidine-3-carboxylic acid], which melting point is on record?
Its melting point is 88 to 104 °C.

Which melting point does the source give for `CN1CC2(CCC2)Oc2cc(C(C)(C)C)cc(-c3cccc(N4CC(C(=O)O)C4)c3)c21` (as salt: ammonium) [Example 213, tert-butylammonium 1-[3-(7-tert-butyl-4-methyl-spiro[3H-1,4-benzoxazine-2,1′-cyclobutane]-5-yl)phenyl]azetidine-3-carboxylate] here?
Its melting point is 170 to 178 °C.

For `Cc1cn(-c2cccc(N3CC(C(=O)N(C)C)C3)c2)c2ccc(C(F)(F)F)cc12` [Example 165, N,N-dimethyl-1-[3-[3-methyl-5-(tirfluormethyl)indol-1-yl]phenyl]azetidine-3-carboxamide], which Emax (NURR-1/RXRα) is on record?
Its Emax is 103%.

And the EC50 (NURR-1/RXRα)?
Its EC50 is 15 nM.

And the Emax (NURR-1/RXRγ)?
The Emax was 108%.

What about the EC50 (NURR-1/RXRγ) of the same compound?
The EC50 was 20 nM.

Which results are given for `CCc1cc2c(c(-c3cccc(N4CC(C(=O)O)C4)c3)c1)NCC(C)(C)O2` [Example 207, tert-butylammonium 1-[3-(7-ethyl-2,2-dimethyl-3,4-dihydro-1,4-benzoxazin-5-yl)phenyl]azetidine-3-carboxylate]?
Emax (NURR-1/RXRα): 112%; EC50 (NURR-1/RXRα): 15 nM; Emax (NURR-1/RXRγ): 103%; EC50 (NURR-1/RXRγ): 16 nM

For `O=C(O)C1CN(c2cccc(-c3cc(C(F)(F)F)ccc3OCC3CCOC3)c2)C1` (stereo not drawn) [Example 91], which Emax (NURR-1/RXRα) is on record?
Its Emax is 43%.

What about the EC50 (NURR-1/RXRα) of the same compound?
The EC50 was 278 nM.

And the Emax (NURR-1/RXRγ)?
The Emax was 77%.

What about the EC50 (NURR-1/RXRγ) of the same compound?
Its EC50 is 282 nM.

For `Cc1cc(-c2cccc(Cl)c2)cc(N2CC(C(=O)O)C2)c1` [Example 27, 1-[3-[3-chlorophenyl]-5-methylpehnyl]azetidine-3-carboxylic acid], which Emax (NURR-1/RXRα) is on record?
Its Emax is 119%.

What about the EC50 (NURR-1/RXRα) of the same compound?
Its EC50 is 165 nM.

And the Emax (NURR-1/RXRγ)?
Its Emax is 114%.

And the EC50 (NURR-1/RXRγ)?
The EC50 was 232 nM.

What does the source list for `CCCc1ccc(C(C)C)cc1-c1cccc(N2CC(C(=O)O)C2)c1` [Example 195, piperazin-1-ium-1-[3-(5-isopropyl-2-propylphenyl)phenyl]azetidine-3-carboxylate]?
Emax (NURR-1/RXRα): 105%; EC50 (NURR-1/RXRα): 7 nM; EC50 (NURR-1/RXRγ): 116 nM

For `CC1(C)CN(CC(F)(F)F)c2c(cc(C(F)(F)F)cc2-c2cccc(N3CC(C(=O)O)C3)c2)O1` (as salt: ammonium) [Example 215, tert-butylammonium 1-[3-[2,2-dimethyl-4 (2,2,2-trifluoromethyl)-7-(trifluoromethyl)-3H-1,4-benzoxazin-5-yl]phenyl]azetidine-3-carboxylate], which melting point is on record?
Its melting point is 148 to 154 °C.

With `Cc1cn(-c2cccc(N3CC(C(=O)NS(=O)(=O)C(F)(F)F)C3)c2)c2ccc(C(F)(F)F)cc12` [Example 151, 1-[3-[3-methyl-5-(trifluoromethyl)indol-1-yl]phenyl]-N-(trifluoromethylsulfonyl)azetidine-3-carboxamide] as the compound, how does the Emax (NURR-1/RXRα) read?
Its Emax is 95%.

What about the EC50 (NURR-1/RXRα) of the same compound?
The EC50 was 4 nM.

What about the Emax (NURR-1/RXRγ) of the same compound?
Its Emax is 73%.

What about the EC50 (NURR-1/RXRγ) of the same compound?
Its EC50 is 7 nM.

Which Emax (NURR-1/RXRα) does the source give for `Cc1cc(N2CC(C(=O)O)C2)cc(-n2cc(C)c3cc(C(F)(F)F)ccc32)c1` [Example 49, 1-[3-methyl-5-[3-methyl-5-(trifluoromethyl)indol-1-yl]phenyl]azetidine-3-carboxylic acid] here?
The Emax was 99%.

What about the EC50 (NURR-1/RXRα) of the same compound?
Its EC50 is 1 nM.

What about the Emax (NURR-1/RXRγ) of the same compound?
Its Emax is 114%.

What about the EC50 (NURR-1/RXRγ) of the same compound?
Its EC50 is 1 nM.

Which melting point does the source give for `CC1(C)CC(c2cccc(N3CC(C(=O)O)C3)c2)c2ccc(C(F)(F)F)cc2O1` (stereo not drawn) (as salt: ammonium) [Example 270, tert-butylammonium 1-[3-[2,2-dimethyl-7-(trifluoromethyl)chroman-4-yl]phenyl]azetidine-3-carboxylate] here?
The melting point was 116 to 122 °C.

Which results are given for `Cc1cn(-c2cccc(N3CC(C(=O)NC(CO)CO)C3)c2)c2ccc(C(F)(F)F)cc12` [Example 161, N-[2-hydroxy-1-(hydroxymethyl)ethyl]-1-[3-[3-methyl-5-(trifluoromethyl)indol-1yl]phenyl]azetidine-3-carboxamide]?
Emax (NURR-1/RXRα): 113%; EC50 (NURR-1/RXRα): 9 nM; Emax (NURR-1/RXRγ): 103%; EC50 (NURR-1/RXRγ): 23 nM

Which Emax (NURR-1/RXRα) does the source give for `Cc1cn(-c2cccc(N3CC(C(=O)NCC(F)(F)F)C3)c2)c2ccc(C(F)(F)F)cc12` [Example 178, 1-[3-[3-methyl-5-(trifluoromethyl)indol-1-yl]phenyl]-N-(2,2,2-trifluoromethyl)azetidine-3-carboxamide] here?
Its Emax is 115%.

What about the EC50 (NURR-1/RXRα) of the same compound?
The EC50 was 14 nM.

And the Emax (NURR-1/RXRγ)?
Its Emax is 133%.

And the EC50 (NURR-1/RXRγ)?
Its EC50 is 146 nM.
